Test results as given in patent US20220298163A1, “BTK INHIBITORS WITH IMPROVED DUAL SELECTIVITY” (BEIGENE, LTD., priority 2017, published 2022).

Columns and labels:
[1] = Rat pharmacokinetic study; assay type: in vivo, Male Sprague Dawley rats; conditions: for AUC(0-inf) / bioavailability / clearance / Cmax: male, Sprague Dawley, plasma, rat; for AUC(0-inf): IV 1 mg·kg^−1 / PO 5 mg·kg^−1 study, route not given; for bioavailability: oral bioavailability, PO 5 mg·kg^−1 vs IV 1 mg·kg^−1; for clearance: single IV 1 mg·kg^−1; for Cmax: single PO 5 mg·kg^−1
EGFR = EGFR (Homo sapiens, UniProt P00533); assay: Biochemical kinase selectivity: IC50 determination of EGFR; conditions: for IC50: TR-FRET, 20 μM ATP; for Fold of EGFR/Btk: ratio of IC50 values
EGFR, sequence (P00533 25-1210): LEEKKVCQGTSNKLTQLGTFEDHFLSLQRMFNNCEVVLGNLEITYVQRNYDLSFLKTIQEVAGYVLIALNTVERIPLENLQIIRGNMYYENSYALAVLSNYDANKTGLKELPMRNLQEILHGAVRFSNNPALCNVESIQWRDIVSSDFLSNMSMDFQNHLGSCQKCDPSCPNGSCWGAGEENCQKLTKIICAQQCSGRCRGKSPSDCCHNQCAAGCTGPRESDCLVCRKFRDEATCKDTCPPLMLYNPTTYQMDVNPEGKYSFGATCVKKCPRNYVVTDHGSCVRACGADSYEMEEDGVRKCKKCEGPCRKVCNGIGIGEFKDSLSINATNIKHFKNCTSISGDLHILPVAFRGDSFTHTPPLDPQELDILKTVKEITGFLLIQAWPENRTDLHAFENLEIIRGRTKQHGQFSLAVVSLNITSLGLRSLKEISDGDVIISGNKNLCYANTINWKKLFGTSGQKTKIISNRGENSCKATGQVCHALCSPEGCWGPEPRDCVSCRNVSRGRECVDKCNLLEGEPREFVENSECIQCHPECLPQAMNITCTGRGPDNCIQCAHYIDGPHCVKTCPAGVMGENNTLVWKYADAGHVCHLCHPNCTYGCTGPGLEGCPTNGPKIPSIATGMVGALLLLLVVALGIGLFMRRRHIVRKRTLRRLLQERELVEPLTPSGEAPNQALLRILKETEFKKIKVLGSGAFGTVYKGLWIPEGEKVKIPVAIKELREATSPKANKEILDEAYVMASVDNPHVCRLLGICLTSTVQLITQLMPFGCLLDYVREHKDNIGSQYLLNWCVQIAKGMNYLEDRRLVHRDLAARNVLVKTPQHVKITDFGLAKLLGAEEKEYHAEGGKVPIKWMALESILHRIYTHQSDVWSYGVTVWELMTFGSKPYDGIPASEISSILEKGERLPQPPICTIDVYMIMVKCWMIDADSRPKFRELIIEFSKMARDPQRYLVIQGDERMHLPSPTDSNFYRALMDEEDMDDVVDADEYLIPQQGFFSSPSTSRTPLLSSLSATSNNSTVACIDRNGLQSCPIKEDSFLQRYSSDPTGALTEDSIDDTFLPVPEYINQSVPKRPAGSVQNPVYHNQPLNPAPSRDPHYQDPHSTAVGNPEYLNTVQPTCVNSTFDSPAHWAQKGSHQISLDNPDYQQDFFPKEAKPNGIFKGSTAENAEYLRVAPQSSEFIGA

Tec = target: T1, Tec (Homo sapiens, UniProt P42680); assay: Biochemical kinase selectivity: IC50 determination of Tec; conditions: for IC50: TR-FRET, 280 μM ATP; for Fold of Tec/Btk: ratio of IC50 values
T1 sequence (P42680 1-631): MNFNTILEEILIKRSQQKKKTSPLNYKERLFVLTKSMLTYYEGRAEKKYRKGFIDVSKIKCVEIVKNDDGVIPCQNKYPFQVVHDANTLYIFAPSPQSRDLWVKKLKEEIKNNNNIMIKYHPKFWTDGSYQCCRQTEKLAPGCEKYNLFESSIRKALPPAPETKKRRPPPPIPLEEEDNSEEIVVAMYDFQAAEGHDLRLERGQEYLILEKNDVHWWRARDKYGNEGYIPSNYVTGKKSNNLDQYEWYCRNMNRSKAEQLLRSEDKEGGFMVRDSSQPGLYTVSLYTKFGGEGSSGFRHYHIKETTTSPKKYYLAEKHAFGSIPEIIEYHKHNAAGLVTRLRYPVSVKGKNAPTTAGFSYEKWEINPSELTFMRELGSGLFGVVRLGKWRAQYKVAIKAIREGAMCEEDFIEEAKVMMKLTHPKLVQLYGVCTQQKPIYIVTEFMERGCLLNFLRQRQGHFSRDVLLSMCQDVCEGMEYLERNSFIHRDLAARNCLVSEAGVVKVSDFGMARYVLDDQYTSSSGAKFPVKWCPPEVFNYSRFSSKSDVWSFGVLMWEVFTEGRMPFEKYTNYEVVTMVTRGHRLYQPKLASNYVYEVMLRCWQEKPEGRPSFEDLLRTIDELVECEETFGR

[2] = target: T2, phosphorylated Btk at Tyr223 (Homo sapiens, UniProt Q06187); assay: Btk pY223 cellular assay (HTRF, Ramos cells); assay type: cell-based; conditions: compound 3 hours, pervanadate or Na3VO4 stimulation, read-out: IC50 (nM) in cell Btk pY223
T2 construct: determine the endogenous levels of phosphorylated Btk at Tyr223; endogenous in cells; host or cells: Ramos cells (CRL-1596, ATCC)
T2 sequence (Q06187 whole entry): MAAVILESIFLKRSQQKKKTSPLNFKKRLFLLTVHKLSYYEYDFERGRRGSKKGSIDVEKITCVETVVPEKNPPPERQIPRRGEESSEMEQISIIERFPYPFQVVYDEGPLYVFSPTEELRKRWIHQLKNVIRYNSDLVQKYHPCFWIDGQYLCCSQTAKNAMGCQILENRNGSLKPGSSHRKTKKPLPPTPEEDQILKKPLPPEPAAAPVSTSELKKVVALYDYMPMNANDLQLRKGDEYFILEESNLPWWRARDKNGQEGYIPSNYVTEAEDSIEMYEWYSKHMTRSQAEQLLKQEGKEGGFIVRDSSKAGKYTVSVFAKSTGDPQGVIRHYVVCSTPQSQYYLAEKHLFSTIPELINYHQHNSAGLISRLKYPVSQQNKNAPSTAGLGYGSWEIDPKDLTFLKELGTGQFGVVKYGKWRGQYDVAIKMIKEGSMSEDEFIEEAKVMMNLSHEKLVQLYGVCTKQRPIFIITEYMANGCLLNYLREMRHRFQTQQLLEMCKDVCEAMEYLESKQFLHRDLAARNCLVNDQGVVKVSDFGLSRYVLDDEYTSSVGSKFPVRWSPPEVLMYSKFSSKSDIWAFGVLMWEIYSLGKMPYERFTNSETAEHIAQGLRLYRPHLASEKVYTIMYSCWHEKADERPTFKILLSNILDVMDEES

[3] = target: T3, Btk kinase (aa2-659, Carna Biosciences) (Homo sapiens, UniProt Q06187); assay: Btk kinase enzymatic assay (TR-FRET); assay type: biochemical; conditions: for IC50: TR-FRET, 30 μM ATP, compound incubated with kinase 60 minutes
T3 construct: purchased Carna Biosciences
T3 sequence (Q06187 2-659): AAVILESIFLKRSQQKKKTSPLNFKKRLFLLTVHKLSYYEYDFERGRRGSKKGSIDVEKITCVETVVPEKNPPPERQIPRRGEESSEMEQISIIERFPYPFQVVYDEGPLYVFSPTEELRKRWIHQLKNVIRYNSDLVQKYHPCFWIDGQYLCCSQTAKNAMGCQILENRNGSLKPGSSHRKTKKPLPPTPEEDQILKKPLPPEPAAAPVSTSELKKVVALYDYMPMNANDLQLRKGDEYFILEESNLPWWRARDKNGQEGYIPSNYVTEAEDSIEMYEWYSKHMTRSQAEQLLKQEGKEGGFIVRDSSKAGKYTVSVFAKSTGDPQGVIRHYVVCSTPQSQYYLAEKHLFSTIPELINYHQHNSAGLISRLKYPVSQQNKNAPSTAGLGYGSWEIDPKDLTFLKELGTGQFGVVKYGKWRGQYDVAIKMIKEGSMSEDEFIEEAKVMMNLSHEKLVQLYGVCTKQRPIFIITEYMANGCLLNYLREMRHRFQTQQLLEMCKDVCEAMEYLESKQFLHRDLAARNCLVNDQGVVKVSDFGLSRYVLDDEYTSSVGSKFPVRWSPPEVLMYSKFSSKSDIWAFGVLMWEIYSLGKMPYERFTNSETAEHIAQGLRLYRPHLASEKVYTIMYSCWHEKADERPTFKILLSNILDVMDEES

SMILES | AUC(0-inf) [1] [ng·h/mL] | bioavailability [1] [%] | clearance [1] [mL/min/kg] | Cmax [1] [ng/mL] | IC50 (EGFR) [nM] | IC50 (Tec) [nM] | IC50 [2] [nM] | IC50 [3] [nM] | Fold of EGFR/Btk (EGFR) [fold] | Fold of Tec/Btk (Tec) [fold] | affinity / inhibitory activity for Btk (in words) [3] | plasma clearance, Cmax, AUC and oral bioavailability compared to compound 167* ([1]; rat PK study, Table IV)
C=CC(=O)Nc1ccccc1C1CCNc2c(C(N)=O)c(-c3cc(OC)c(OC)c(OC)c3)nn21 (stereo not drawn) [167^#] | 65.1 | 11.8 | 152 | 60.4 | 9.5 | 157 | 83.5 |  |  |  |  | 
C=CC(=O)Nc1ccccc1C1CCNc2c(C(N)=O)c(-c3cc(Cl)c(OC)c(Cl)c3)nn21 (stereo not drawn) [169^#] |  |  |  |  | 0.54 | 37 | 28.2 |  |  |  |  | 
C=CC(=O)N1CCC(C2CCNc3c(C(N)=O)c(-c4cc(Cl)c(C)c(Cl)c4)nn32)CC1 (stereo not drawn) [Example A7, 7-(1-acryloylpiperidin-4-yl)-2-(3,5-dichloro-4-methylphenyl)-4,5,6,7-tetrahydropyrazolo[1,5-a]pyrimidine-3-carboxamide] |  |  |  |  | 1190 | 254 | 148 | 4.1 | 289 | 62 |  | 
C=CC(=O)N1CCC(C2CCNc3c(C(N)=O)c(-c4cc(C)c(Br)c(C)c4)nn32)CC1 (stereo not drawn) [Example A20, 7-(1-acryloylpiperidin-4-yl)-2-(4-bromo-3,5-dimethylphenyl)-4,5,6,7-tetrahydropyrazolo[1,5-a]pyrimidine-3-carboxamide] |  |  |  |  | 496 | 352 | 143 | 3.3 | 150 | 107 | high affinity for Btk | 
C=CC(=O)N1CCC(C2CCNc3c(C(N)=O)c(-c4cc(Cl)c(C5CC5)c(OC)c4)nn32)CC1 (stereo not drawn) [Example A36, 7-(1-acryloylpiperidin-4-yl)-2-(3-chloro-4-cyclopropyl-5-methoxyphenyl)-4,5,6,7-tetrahydropyrazolo[1,5-a]pyrimidine-3-carboxamide] |  |  |  |  | 2570 | 137 | 50.5 | 1.1 | 2339 | 125 | high affinity for Btk | 
C=CC(=O)N1CCC(C2CCNc3c(C(N)=O)c(-c4cc(OC)c(/C=C/c5ccccc5)c(OC)c4)nn32)CC1 (stereo not drawn) [Example A41, (E)-7-(1-acryloylpiperidin-4-yl)-2-(3,5-dimethoxy-4-styrylphenyl)-4,5,6,7-tetrahydropyrazolo[1,5-a]pyrimidine-3-carboxamide] |  |  |  |  | 1510 | 101 | 66.8 | 3.3 | 458 | 31 |  | 
C#CC(=O)N1CCC(C2CCNc3c(C(N)=O)c(-c4cc(OC)c(C)c(OC)c4)nn32)CC1 (stereo not drawn) [Example A50, 2-(3,5-dimethoxy-4-methylphenyl)-7-(1-propioloylpiperidin-4-yl)-4,5,6,7-tetrahydropyrazolo[1,5-a]pyrimidine-3-carboxamide] |  |  |  |  | 599 | 3.2 | 12.3 | 0.34 | 1762 | 9.4 |  | 
C=CC(=O)N1CC(C2CCNc3c(C(N)=O)c(-c4cc(OC)c(Br)c(OC)c4)nn32)C1 (stereo not drawn) [Example B2, 7-(1-acryloylazetidin-3-yl)-2-(4-bromo-3,5-dimethoxyphenyl)-4,5,6,7-tetrahydropyrazolo[1,5-a]pyrimidine-3-carboxamide] |  |  |  |  | 1750 | 172 | 45.7 | 5 | 350 | 34 |  | 
C=CC(=O)N1CC(C2CCNc3c(C(N)=O)c(-c4cc(OC)c(C)c(OC)c4)nn32)C1 (stereo not drawn) [Example B3, 7-(1-acryloylazetidin-3-yl)-2-(3,5-dimethoxy-4-methylphenyl)-4,5,6,7-tetrahydropyrazolo[1,5-a]pyrimidine-3-carboxamide] |  |  |  |  | 1910 | 157 | 93.1 | 5.9 | 324 | 27 |  | 
C=CC(=O)N1CC2CNc3c(C(N)=O)c(-c4cc(OC)c(C)c(OC)c4)nn3C2C1 (stereo not drawn) [Example C1, 7-acryloyl-2-(3,5-dimethoxy-4-methylphenyl)-5,5a,6,7,8,8a-hexahydro-4H-pyrazolo[1,5-a]pyrrolo[3,4-e]pyrimidine-3-carboxamide] |  |  |  |  | 536 | 380 | 49.6 | 3.4 | 158 | 112 | high affinity for Btk | 

The next lines start with results.

AUC(0-inf) [1] [ng·h/mL] | bioavailability [1] [%] | clearance [1] [mL/min/kg] | Cmax [1] [ng/mL] | IC50 (EGFR) [nM] | IC50 (Tec) [nM] | IC50 [2] [nM] | IC50 [3] [nM] | Fold of EGFR/Btk (EGFR) [fold] | Fold of Tec/Btk (Tec) [fold] | affinity / inhibitory activity for Btk (in words) [3] | SMILES | plasma clearance, Cmax, AUC and oral bioavailability compared to compound 167* ([1]; rat PK study, Table IV)
1710 | 73.7 | 42.8 | 859 |  |  |  |  |  |  |  | C=CC(=O)N1CCC(C2CCNc3c(C(N)=O)c(-c4cc(OC)c(C5CC5)c(OC)c4)nn32)CC1 (single isomer, unassigned) [Example A2a, (S or R)-7-(1-acryloylpiperidin-4-yl)-2-(4-cyclopropyl-3,5-dimethoxyphenyl)-4,5,6,7-tetrahydropyrazolo[1,5-a]pyrimidine-3-carboxamide] | lower plasma clearance values, higher Cmax, AUC and oral bioavailability
 |  |  |  | 1380 | 130 | 14.8 | 0.93 |  |  |  | C=CC(=O)N1CCC(C2CCNc3c(C(N)=O)c(-c4cc(OC)c(I)c(OC)c4)nn32)CC1 (stereo not drawn) [Example A8, 7-(1-acryloylpiperidin-4-yl)-2-(4-iodo-3,5-dimethoxyphenyl)-4,5, tetrahydropyrazolo[1,5-a]pyrimidine-3-carboxamide] | 
 |  |  |  | > 10000 | 289 | 37.3 | 4.7 |  | 61 |  | C=CC(=O)N1CCC(C2CCNc3c(C(N)=O)c(-c4cc(OC)c(C)c(OCC)c4)nn32)CC1 (stereo not drawn) [Example A12, 7-(1-acryloylpiperidin-4-yl)-2-(3-ethoxy-5-methoxy-4-methylphenyl)-4,5,6,7-tetrahydropyrazolo[1,5-a]pyrimidine-3-carboxamide] | 
 |  |  |  | 9390 | 499 | 42.9 | 2.7 | 3479 | 185 | high affinity for Btk | C=CC(=O)N1CCC(C2CCNc3c(C(N)=O)c(-c4cc(OC)c(C5CC5)c(OCC)c4)nn32)CC1 (stereo not drawn) [Example A33, 7-(1-acryloylpiperidin-4-yl)-2-(4-cyclopropyl-3-ethoxy-5-methoxyphenyl)-4,5,6,7-tetrahydropyrazolo[1,5-a]pyrimidine-3-carboxamide] | 
 |  |  |  | 405 | 207 | 41.8 | 1.8 | 225 | 115 | high affinity for Btk | C=CC(=O)N1CCC(C2CCNc3c(C(N)=O)c(-c4cc(C)c(C)c(OC)c4)nn32)CC1 (stereo not drawn) [Example A34, 7-(1-acryloylpiperidin-4-yl)-2-(3-methoxy-4,5-dimethylphenyl)-4,5,6,7-tetrahydropyrazolo[1,5-a]pyrimidine-3-carboxamide] | 
 |  |  |  | 1150 | 174 | 65 | 2.3 | 500 | 75.6 |  | C=CC(=O)N1CCC(C2CCNc3c(C(N)=O)c(-c4cc(Cl)c(C)c(OC)c4)nn32)CC1 (stereo not drawn) [Example A35, 7-(1-acryloylpiperidin-4-yl)-2-(3-chloro-5-methoxy-4-methylphenyl)-4,5,6,7-tetrahydropyrazolo[1,5-a]pyrimidine-3-carboxamide] | 
 |  |  |  | 2250 | 264 | 36.7 | 2.8 | 803 | 94 |  | C=CC(=O)N1CCC(C2CCNc3c(C(N)=O)c(-c4cc(OC)c(C(F)(F)F)c(OC)c4)nn32)CC1 (stereo not drawn) [Example A38, 7-(1-acryloylpiperidin-4-yl)-2-(3,5-dimethoxy-4-(trifluoromethyl)phenyl)-4,5,6,7-tetrahydropyrazolo[1,5-a]pyrimidine-3-carboxamide] | 
 |  |  |  | 3810 | 974 | 258 | 5.9 | 646 | 165 | high affinity for Btk | C=CC(=O)N1CCC(C2CCNc3c(C(N)=O)c(-c4cc(OC)c(C(C)O)c(OC)c4)nn32)CC1 (stereo not drawn) [Example A46, 7-(1-acryloylpiperidin-4-yl)-2-(4-(1-hydroxyethyl)-3,5-dimethoxyphenyl)-4,5,6,7-tetrahydropyrazolo[1,5-a]pyrimidine-3-carboxamide] | 
